Measured values reported in publication PMC11898701, “Evaluating Therapeutic Efficacy of the Vascular Disrupting Agent OXi8007 Against Kidney Cancer in Mice” (Cancers, 2025).
Read-outs that look alike come from different tables or passages of the source. Marks after values point to notes of the source that are not given here.

Columns and labels:
[1] = Blood pressure assessment (CODA system); assay type: in vivo, mouse
Description: Blood pressure was measured using a CODA system (Kent Scientific, Torrington, CT, USA) on 5 adult male BALB/c mice. Mice were anesthetized with 2% isoflurane in oxygen at 1 dm^3/min and placed on the CODA IR heating pad with a feedback rectal temperature probe and nosecone to maintain anesthesia. An occlusion cuff and VPR cuff were placed on the tail. The baseline measurement was recorded over 30 min, then OXi8007 (250 mg/kg or 325 mg/kg) was administered IP and the blood pressure measurement resumed for 45 min. As positive and negative controls, hydralazine (1 mg/kg) or saline, respectively, were injected IP.

[2] = Pharmacokinetic study in Renca-luc tumor-bearing BALB/c mice; assay type: in vivo, mouse; conditions: for Tmax / half-life / Cmax: ip; for Cmax: read-out: Cmax
Description: Plasma and tissues were harvested at various time points (20 min to 16 h) from Renca-luc tumor-bearing BALB/c male mice following the administration of OXi8007 IP. Mice treated with 250 mg/kg were sacrificed at 20 min (n = 3), 1 h (n = 4), 2 h (n = 4), 4 h (n = 4), 8 h (n = 4), and 16 h (n = 4). Mice were anesthetized, exsanguinated, the tissues were blotted, and then they were weighed and frozen in liquid nitrogen. Homogenized plasma and tissue samples were extracted with acetonitrile with a bead mill; internal standard (CA4 or tri-labeled ^13C-OXi8006) was added to each sample to reach a final concentration of 10 ppb. Samples were centrifuged twice to remove precipitated proteins (16,260× g for 10 min at 4 °C). Clear supernatant was transferred into MS vials, and formic acid was added to a final concentration of 0.1% for LC-MS analysis. […] Mobile phase A consisted of 0.1% v/v formic acid in water, and mobile phase B was acetonitrile, which was mixed by the binary pump with an elution gradient at a flow rate of 0.6 mL/min. Data were analyzed using Xcalibur 4.6 software based on exact masses, and Phoenix WinNonlin 8.5.0 software was used to determine the pharmacokinetic parameters based on a non-compartmental model.

Renca-luc cells = assay: Renca-luc sulforhodamine B (SRB) assay, cell growth inhibition; assay type: cell-based; conditions: Mus musculus, 48 h
Description: (§1) In two independent trials of Renca and Renca-luc cells were plated in triplicate at 8000 cells/well into 96-well plates and incubated for 24 h at 37 °C in a humidified incubator with 5% CO2 followed by a 48 h treatment period at ten-fold dilutions of the drug.

[3] = system: orthotopic Renca-luc tumors; assay: Acute response by oxygen-enhanced MSOT; assay type: in vivo, mouse
Description: For the multispectral optoacoustic tomography (MSOT), an iThera InVision 256-TF device with seven wavelengths (700, 730, 760, 780, 800, 820, and 875 nm) was used. Mice were shaved and depilated around the tumor region. The anesthetized mouse (1–2% isoflurane) was placed in the imaging chamber (34 °C) for 10 min to reach thermal equilibrium before imaging a single slice showing the largest cross-section of the tumor. An oxygen gas breathing challenge was performed to assess the dynamic changes in blood oxygenation. Images were generated using ViewMSOT version 4.2 with a back projection-based reconstruction algorithm followed by built-in fluence correction. Oxy- and deoxyhemoglobin were resolved using a linear regression approach.
Oxygen saturation (sO2) maps were analyzed using MATLAB 2022b (MathWorks Inc., Natick, MA, USA), and the images were visualized with Fiji. The percentage of hemoglobin saturation (sO2) was calculated as follows:[…]
Blank pixels represent areas lacking a detectable hemoglobin signal. The average sO2^MSOT was calculated pixelwise in each ROI for the air and oxygen breathing periods as sO2^MSOT (Air) and sO2^MSOT (O2), and the response to the oxygen gas challenge was as follows:∆sO2 = sO2 (O2) − sO2 (Air)(2) […]

Renca cells = assay: Renca sulforhodamine B (SRB) assay, cell growth inhibition; assay type: cell-based; conditions: Mus musculus, Renca, 48 h
Description: as §1

[4] = male, BALB/c, mouse, in vivo, 250 mg/kg, brain, after OXi8007 250 mg/kg IP
[5] = male, BALB/c, mouse, in vivo, 250 mg/kg, heart, after OXi8007 250 mg/kg IP
[6] = male, BALB/c, mouse, in vivo, 250 mg/kg, left kidney, after OXi8007 250 mg/kg IP
[7] = male, BALB/c, mouse, in vivo, 250 mg/kg, liver, after OXi8007 250 mg/kg IP
[8] = male, BALB/c, mouse, in vivo, 250 mg/kg, lungs, after OXi8007 250 mg/kg IP
[9] = male, BALB/c, mouse, in vivo, 250 mg/kg, plasma, after OXi8007 250 mg/kg IP
[10] = male, BALB/c, mouse, in vivo, 250 mg/kg, spleen, after OXi8007 250 mg/kg IP
[11] = male, BALB/c, mouse, in vivo, 250 mg/kg, tumor and right kidney, after OXi8007 250 mg/kg IP

## COc1ccc2c(C(=O)c3cc(OC)c(OC)c(OC)c3)c(-c3ccc(OC)c(OP(=O)(O)O)c3)[nH]c2c1 [OXi8007]
[1]; 250 mg/kg IP
  Duration of temporary elevation in blood pressure: less than 20 min
[1]; 250 mg/kg IP, 5 male BALB/c mice, baseline 84 ± 2
  Diastolic blood pressure after administration: 82 mmHg
[1]; 250 mg/kg IP, 5 male BALB/c mice, baseline 94 ± 2
  Mean blood pressure after administration: 94 mmHg
[1]; 250 mg/kg IP, 5 male BALB/c mice, baseline 115 ± 3
  Systolic blood pressure after administration: 117 mmHg
[1]; 250 mg/kg IP, systolic, diastolic or mean
  Effect on mouse blood pressure: minimal effect
[1]; 325 mg/kg IP
  Effect on mouse blood pressure: larger transient change
[2]; Renca-luc tumor, from 15 ng/mg
  Concentration in the tumor, molar equivalent: 32 µM
[2]; Renca-luc tumor, maximum
  Concentration in the tumor: 15 ng/mg
[2]; brain, after OXi8007 250 mg/kg IP
  AUC: 0.11 ng·h/mg
[2]; heart, after OXi8007 250 mg/kg IP
  AUC: 1.32 ng·h/mg
[2]; left kidney, after OXi8007 250 mg/kg IP
  AUC: 2.05 ng·h/mg
[2]; liver, after OXi8007 250 mg/kg IP
  AUC: 12.67 ng·h/mg
[2]; lungs, after OXi8007 250 mg/kg IP
  AUC: 2.3 ng·h/mg
[2]; male, BALB/c, mouse, in vivo, 250 mg/kg, plasma, within 4 h after OXi8007 IP
  concentration at 4 h: 10 µg/mL
[2]; male, BALB/c, mouse, in vivo, 250 mg/kg, Renca-luc tumors, IP administration, read-out: Time to maximum concentration in tumors
  Tmax: ≤ 60 min
[2]; [4]
  half-life: 30.6 min
  Cmax: 70 ng/g
[2]; male, BALB/c, mouse, in vivo, 250 mg/kg, brain, after OXi8007 250 mg/kg IP, read-out: Tmax (converted)
  Tmax: 60 min
[2]; [5]
  half-life: 36.6 min
  Cmax: 1620 ng/g
[2]; male, BALB/c, mouse, in vivo, 250 mg/kg, heart, after OXi8007 250 mg/kg IP, read-out: Tmax (converted)
  Tmax: 20 min
[2]; [6]
  half-life: 70.8 min
  Cmax: 1400 ng/g
[2]; male, BALB/c, mouse, in vivo, 250 mg/kg, left kidney, after OXi8007 250 mg/kg IP, read-out: Tmax (converted)
  Tmax: 20 min
[2]; [7]
  half-life: 66 min
  Cmax: 13400 ng/g
[2]; male, BALB/c, mouse, in vivo, 250 mg/kg, liver, after OXi8007 250 mg/kg IP, read-out: Tmax (converted)
  Tmax: 20 min
[2]; [8]
  half-life: 42 min
  Cmax: 1610 ng/g
[2]; male, BALB/c, mouse, in vivo, 250 mg/kg, lungs, after OXi8007 250 mg/kg IP, read-out: Tmax (converted)
  Tmax: 20 min
[2]; [9]
  half-life: 49 min
  Cmax: 453 µg/mL
[2]; male, BALB/c, mouse, in vivo, 250 mg/kg, plasma, after OXi8007 250 mg/kg IP, Renca-luc tumor-bearing BALB/c mice
  half-life: 49.2 min
[2]; male, BALB/c, mouse, in vivo, 250 mg/kg, plasma, after OXi8007 250 mg/kg IP, read-out: Tmax (converted)
  Tmax: 20 min
[2]; [10]
  half-life: 39 min
  Cmax: 990 ng/g
[2]; male, BALB/c, mouse, in vivo, 250 mg/kg, spleen, after OXi8007 250 mg/kg IP, read-out: Tmax (converted)
  Tmax: 60 min
[2]; [11]
  half-life: 120 min
  Cmax: 15000 ng/g
[2]; male, BALB/c, mouse, in vivo, 250 mg/kg, tumor and right kidney, after OXi8007 250 mg/kg IP, read-out: Tmax (converted)
  Tmax: 60 min
[2]; plasma, maximum, after OXi8007 IP
  Plasma concentration: about 450 µg/mL
[2]; plasma, after OXi8007 250 mg/kg IP, zero to last quantifiable concentration
  AUC: 511 ^# h × ng/µL
[2]; spleen, after OXi8007 250 mg/kg IP
  AUC: 1.41 ng·h/mg
[2]; tumor and right kidney, after OXi8007 250 mg/kg IP
  AUC: 36.31 ng·h/mg
Renca-luc cells
  IC50: 1.56 ± 0.048 µM
[3]; 350 mg/kg IP in situ using a catheter, while breathing O2
  Period of vascular hypoxiation to plateau (MSOT): about 30 min
[3]; after intraperitoneal administration
  Time to hypoxiation (photoacoustic imaging): ≤ 30 min
Renca cells
  IC50: 1.45 ± 0.001 µM
